Results reported in ChEMBL document CHEMBL1201862, “PubChem BioAssay data set” (2004).
Activity calls are given as the source filed them.

How the values were obtained:
[1] = molecular target: T1, Oxysterols receptor LXR-beta (Homo sapiens, UniProt P55055); type: functional, cell-based;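 note: agonist activity at LXR measured by a cell-based luminescence readout across a dose range, run as a counterscreen for daf-12 agonists; potency for activation of Gal4-LXR reporter so compounds are agonists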
T1 sequence (P55055 whole entry): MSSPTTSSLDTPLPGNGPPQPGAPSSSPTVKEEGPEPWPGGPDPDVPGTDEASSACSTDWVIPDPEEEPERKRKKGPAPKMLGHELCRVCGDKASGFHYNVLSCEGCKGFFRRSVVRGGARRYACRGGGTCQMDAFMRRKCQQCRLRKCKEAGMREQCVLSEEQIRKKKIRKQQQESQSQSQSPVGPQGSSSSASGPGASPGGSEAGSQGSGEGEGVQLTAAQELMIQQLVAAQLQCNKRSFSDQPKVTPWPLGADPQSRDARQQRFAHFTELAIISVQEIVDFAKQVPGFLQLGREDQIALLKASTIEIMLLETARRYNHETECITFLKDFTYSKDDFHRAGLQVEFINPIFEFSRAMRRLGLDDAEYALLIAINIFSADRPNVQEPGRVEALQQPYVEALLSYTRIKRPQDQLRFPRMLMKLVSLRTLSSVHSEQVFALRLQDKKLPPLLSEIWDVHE

[2] = molecular target: T2, Sentrin-specific protease 7 (Homo sapiens, UniProt Q9BQF6); type: functional;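 note: Luminescence-based dose-response confirmation of ultra-high-throughput screening hits, measuring inhibition of SENP7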
T2 sequence (Q9BQF6 whole entry): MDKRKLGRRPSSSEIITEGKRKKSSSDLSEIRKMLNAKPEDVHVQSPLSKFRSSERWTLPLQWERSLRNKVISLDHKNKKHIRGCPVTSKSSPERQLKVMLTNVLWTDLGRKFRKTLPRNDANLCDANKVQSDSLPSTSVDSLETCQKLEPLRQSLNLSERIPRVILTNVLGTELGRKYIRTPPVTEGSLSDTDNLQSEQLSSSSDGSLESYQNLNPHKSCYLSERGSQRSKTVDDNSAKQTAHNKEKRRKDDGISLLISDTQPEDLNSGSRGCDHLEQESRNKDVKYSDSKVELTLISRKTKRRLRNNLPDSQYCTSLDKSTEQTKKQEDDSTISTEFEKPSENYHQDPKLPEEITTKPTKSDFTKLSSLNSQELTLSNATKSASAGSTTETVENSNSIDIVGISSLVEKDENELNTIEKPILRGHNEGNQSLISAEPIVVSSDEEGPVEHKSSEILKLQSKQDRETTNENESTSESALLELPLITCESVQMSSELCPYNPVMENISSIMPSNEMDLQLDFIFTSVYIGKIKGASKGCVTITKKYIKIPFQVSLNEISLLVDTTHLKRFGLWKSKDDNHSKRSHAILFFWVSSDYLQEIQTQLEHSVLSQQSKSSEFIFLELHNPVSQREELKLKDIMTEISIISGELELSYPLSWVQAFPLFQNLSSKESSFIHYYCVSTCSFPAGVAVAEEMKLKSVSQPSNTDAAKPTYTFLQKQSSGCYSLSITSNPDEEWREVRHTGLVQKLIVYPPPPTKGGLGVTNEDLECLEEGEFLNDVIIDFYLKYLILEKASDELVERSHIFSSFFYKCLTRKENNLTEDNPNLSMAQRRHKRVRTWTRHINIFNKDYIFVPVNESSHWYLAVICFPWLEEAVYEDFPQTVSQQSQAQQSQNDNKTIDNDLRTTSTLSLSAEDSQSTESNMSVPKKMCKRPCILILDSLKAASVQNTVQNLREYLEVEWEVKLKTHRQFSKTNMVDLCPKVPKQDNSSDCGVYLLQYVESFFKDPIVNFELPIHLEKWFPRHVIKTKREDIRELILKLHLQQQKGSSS

[3] = molecular target: T3, Sentrin-specific protease 8 (Homo sapiens, UniProt Q96LD8); type: functional;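 note: luminescence read-out of SENP8 inhibition, dose-response confirmation following an ultra-high-throughput screen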
T3 sequence (Q96LD8 whole entry): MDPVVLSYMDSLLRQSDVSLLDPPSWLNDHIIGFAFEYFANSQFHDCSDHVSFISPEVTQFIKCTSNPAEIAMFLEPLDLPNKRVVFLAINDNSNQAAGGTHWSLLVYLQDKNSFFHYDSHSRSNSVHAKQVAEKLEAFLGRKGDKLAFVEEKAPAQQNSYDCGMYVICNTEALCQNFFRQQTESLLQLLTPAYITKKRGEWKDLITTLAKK

Caspase-3 = molecular target: T4, Caspase-3 (Homo sapiens, UniProt P42574); type: functional;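 note: Dose-response selectivity test against caspase-3 for candidate inhibitors of sentrin-specific proteases (SENPs)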
T4 sequence (P42574 whole entry): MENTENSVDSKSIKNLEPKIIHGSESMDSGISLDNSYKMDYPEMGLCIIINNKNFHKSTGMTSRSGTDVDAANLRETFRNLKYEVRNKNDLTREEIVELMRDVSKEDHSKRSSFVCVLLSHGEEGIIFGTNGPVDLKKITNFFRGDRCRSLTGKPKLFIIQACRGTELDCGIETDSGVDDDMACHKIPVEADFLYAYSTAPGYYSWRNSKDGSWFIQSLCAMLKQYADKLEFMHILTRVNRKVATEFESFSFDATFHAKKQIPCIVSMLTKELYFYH

[4] = molecular target: T5, Sentrin-specific protease 6 (Homo sapiens, UniProt Q9GZR1); type: functional;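 note: Luminescence-based dose-response confirmatory assay of SENP6 inhibition, following up an ultra-high-throughput screen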
T5 sequence (Q9GZR1 whole entry): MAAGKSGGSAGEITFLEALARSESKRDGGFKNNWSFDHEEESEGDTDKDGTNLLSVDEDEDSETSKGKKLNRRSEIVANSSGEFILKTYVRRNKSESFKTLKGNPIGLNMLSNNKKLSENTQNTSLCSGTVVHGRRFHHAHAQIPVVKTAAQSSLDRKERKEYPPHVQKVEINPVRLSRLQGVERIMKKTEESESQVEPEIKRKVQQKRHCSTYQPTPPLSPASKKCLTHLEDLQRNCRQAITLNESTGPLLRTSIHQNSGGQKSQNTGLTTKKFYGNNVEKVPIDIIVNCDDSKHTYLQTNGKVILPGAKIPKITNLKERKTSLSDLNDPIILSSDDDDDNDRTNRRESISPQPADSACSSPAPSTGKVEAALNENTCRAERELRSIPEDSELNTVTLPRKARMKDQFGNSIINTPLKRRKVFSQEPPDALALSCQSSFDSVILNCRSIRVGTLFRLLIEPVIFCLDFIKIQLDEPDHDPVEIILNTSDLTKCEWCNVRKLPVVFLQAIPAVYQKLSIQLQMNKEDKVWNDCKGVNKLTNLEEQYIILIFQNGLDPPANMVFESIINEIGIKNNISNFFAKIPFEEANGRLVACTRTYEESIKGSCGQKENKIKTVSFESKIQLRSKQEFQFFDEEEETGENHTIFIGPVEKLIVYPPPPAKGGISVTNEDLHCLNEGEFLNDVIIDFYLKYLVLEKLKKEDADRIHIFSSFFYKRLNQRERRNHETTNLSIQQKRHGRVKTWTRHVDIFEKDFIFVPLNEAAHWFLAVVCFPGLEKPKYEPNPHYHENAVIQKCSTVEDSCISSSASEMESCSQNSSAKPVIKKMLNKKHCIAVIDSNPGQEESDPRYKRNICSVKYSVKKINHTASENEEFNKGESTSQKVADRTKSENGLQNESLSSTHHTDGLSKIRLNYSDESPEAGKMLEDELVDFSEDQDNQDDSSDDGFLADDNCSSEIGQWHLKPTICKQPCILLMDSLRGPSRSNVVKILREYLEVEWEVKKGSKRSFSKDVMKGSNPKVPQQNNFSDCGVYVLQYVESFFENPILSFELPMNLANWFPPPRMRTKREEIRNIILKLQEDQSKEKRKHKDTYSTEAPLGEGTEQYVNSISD

[5] = molecular target: NAD-dependent protein deacylase sirtuin-5, mitochondrial (Homo sapiens, UniProt Q9NXA8); assay: SIRT5 desuccinylase inhibitors, dose response, biochemical, fluorescence imaging, cherry-pick, set 5 (AID 720591);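 note: desuccinylation of succinyl peptide AMC substrate read as fluorescence after trypsin release; potency of inhibitors that lower fluorescence and may act on trypsin instead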
[6] = molecular target: T6, Mannose-6-phosphate isomerase (Homo sapiens, UniProt P34949); assay: human PMI inhibitors, high substrate, primary screen, biochemical, fluorescence intensity, high mannose 6-phosphate (AID 1220)
T6 sequence (P34949 whole entry): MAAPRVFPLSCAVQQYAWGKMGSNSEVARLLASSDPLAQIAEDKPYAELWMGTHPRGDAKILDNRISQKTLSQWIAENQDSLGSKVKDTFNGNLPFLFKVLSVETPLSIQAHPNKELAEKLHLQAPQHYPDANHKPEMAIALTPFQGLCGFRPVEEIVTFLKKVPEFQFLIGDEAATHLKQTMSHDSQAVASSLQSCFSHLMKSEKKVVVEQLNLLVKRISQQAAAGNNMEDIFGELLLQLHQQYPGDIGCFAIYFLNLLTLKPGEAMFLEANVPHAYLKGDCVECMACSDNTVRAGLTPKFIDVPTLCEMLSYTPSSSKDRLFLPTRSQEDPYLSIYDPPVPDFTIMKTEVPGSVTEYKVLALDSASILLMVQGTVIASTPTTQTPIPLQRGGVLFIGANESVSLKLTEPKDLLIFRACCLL

HEK293 = assay: cells; type: functional, cell-based; settings: Homo sapiens
[7] = Luminescence-based cell-based high throughput dose response assay to identify activators of the DAF-12 from the parasite S. stercoralis (ssDAF-12).; type: functional
[8] = molecular target: T1, Oxysterols receptor LXR-beta; assay: LXR agonists, Gal4 luciferase reporter, dose response, counter-screen for ssDAF-12 agonist project, cell-based, luminescence, HEK293, S. stercoralis campaign (AID 720737); type: functional; settings: read-out: IC50 (the source's name)
[9] = molecular target: T7, Nuclear receptor subfamily 0 group B member 1 (Homo sapiens, UniProt P51843); assay: Luminescence-based cell-based high throughput dose response assay for inhibitors of the orphan nuclear receptor subfamily 0, group B, member 1 (DAX1; NR0B1). [Related pubchem assays (depositor defined):AID504766, AID504790]; type: functional
T7 sequence (P51843 whole entry): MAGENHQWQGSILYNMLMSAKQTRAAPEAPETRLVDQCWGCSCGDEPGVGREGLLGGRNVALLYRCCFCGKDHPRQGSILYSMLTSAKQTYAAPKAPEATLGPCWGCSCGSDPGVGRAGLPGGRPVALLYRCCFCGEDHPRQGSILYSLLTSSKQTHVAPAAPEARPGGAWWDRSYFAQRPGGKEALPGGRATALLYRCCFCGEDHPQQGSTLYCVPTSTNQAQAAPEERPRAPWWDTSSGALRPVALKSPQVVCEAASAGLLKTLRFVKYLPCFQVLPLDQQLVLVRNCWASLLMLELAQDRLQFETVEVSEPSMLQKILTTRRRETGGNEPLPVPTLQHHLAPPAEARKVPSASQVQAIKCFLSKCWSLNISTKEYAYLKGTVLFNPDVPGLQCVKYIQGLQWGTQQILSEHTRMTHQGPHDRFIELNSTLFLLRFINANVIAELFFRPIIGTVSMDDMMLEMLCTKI

Protein Tat = molecular target: T8, Protein Tat (Human immunodeficiency virus type 1 group M subtype B (isolate HXB2)(HIV-1), UniProt P04608); type: functional;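 note: tat binding to TAR RNA read out by fluorescence polarization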
T8 sequence (P04608 whole entry): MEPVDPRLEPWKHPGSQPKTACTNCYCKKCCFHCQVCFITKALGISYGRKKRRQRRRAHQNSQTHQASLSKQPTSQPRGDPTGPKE

[10] = molecular target: T9, Rac GTPase-activating protein 1 (Homo sapiens, UniProt Q9H0H5); assay: MgcRacGAP GTPase-activating activity inhibitors, confirmation, biochemical, ADP Hunter fluorescence, primary and confirmatory (AID 624330); type: functional
T9 sequence (Q9H0H5 whole entry): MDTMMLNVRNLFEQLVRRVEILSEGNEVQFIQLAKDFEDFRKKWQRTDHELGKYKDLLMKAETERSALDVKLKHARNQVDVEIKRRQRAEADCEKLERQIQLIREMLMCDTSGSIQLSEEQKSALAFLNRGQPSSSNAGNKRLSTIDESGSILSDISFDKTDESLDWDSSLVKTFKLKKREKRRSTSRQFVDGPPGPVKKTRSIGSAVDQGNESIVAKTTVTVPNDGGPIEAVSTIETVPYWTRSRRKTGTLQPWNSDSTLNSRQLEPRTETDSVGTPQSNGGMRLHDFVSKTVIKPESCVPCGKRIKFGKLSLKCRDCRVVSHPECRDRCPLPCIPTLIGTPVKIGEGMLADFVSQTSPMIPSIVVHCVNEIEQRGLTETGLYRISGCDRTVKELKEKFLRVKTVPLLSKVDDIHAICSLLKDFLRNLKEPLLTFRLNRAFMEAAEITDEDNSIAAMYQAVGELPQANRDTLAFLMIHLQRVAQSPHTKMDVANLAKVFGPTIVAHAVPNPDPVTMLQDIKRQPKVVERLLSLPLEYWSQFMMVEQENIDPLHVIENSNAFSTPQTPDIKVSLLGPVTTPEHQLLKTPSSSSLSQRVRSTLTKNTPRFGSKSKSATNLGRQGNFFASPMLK

[11] = LGR2 antagonists, dose response, cell-based, HEK293, CRE-luciferase reporter, cherry pick, set 2 (AID 743343); type: functional;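 note: transfected cells were stimulated with diluted bursicon conditioned medium after compound addition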
[12] = HEK293 cell cytotoxicity, dose response, cytotoxicity control, plate reader, cherry-picked samples (AID 743446); type: functional, cell-based
[13] = MC4R antagonists, dose response, counter-screen for LGR2 antagonist project, cell-based, plate reader, cherry pick (AID 743444); type: functional;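 note: transfected HEK 293 cells stimulated with alpha-MSH peptide; potency of inhibitors of the alpha-MSH evoked signal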
[14] = P. falciparum Dd2 growth inhibitors, dose response, SYBR Green, cherry-picked samples (AID 1159567); type: functional, cell-based
[15] = HepG2 cell cytotoxicity, dose response, cytotoxicity control, cherry-picked samples (AID 1159577); type: functional, cell-based

NAD-dependent protein deacylase sirtuin-5, mitochondrial, sequence (Q9NXA8 whole entry): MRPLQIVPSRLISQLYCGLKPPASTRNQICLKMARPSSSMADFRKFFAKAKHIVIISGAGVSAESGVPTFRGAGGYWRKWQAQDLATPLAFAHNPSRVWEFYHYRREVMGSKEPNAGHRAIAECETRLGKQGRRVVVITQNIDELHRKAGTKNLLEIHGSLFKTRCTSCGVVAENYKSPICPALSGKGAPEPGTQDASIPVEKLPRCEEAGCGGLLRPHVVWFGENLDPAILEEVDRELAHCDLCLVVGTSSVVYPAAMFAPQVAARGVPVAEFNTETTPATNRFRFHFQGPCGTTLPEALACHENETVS

CCOC(=O)c1c(C)[nH]c(N=Nc2cccc(OC)c2)c1C
EC50 [1]: > 67.5 µM (inactive)
IC50 [2]: 3.75 µM (active)
IC50 [3]: 17.3 µM (active)
IC50 (Caspase-3): 29.1 µM (active)
IC50 [4]: 11.7 µM (active)

Cc1ccc(C)c(N2CCN(C(=O)c3cccn4c(=O)c5sccc5nc34)CC2)c1
AC50 [5]: 26.9 µM (active)

CCN(CC)c1ccc(N/C=C2\C(=O)NC(=O)N(CCc3ccc(OC)c(OC)c3)C2=O)cc1
IC50 [6]: > 50 µM (not active)

COc1ccc(Cl)cc1C(=O)Nc1ccc2c(c1)OCCO2
IC50 (HEK293): > 67.5 µM (inactive)
IC50 [7]: > 67.5 µM (inactive)
EC50 [8]: > 67.5 µM (inactive)
IC50 [9]: > 67.5 µM (inactive)

O=C(c1ccco1)N1CCN(C(c2ccccn2)c2nnnn2C2CCCC2)CC1 (stereo unspecified)
IC50 (Protein Tat): > 100 µM (active)

Cc1cc(C(=O)NNC(=O)/C=C/c2ccco2)c(C)o1
IC50 (Protein Tat): > 100 µM (active)
IC50 [10]: 125 µM (active)

O=C(COC(=O)c1nnc(O)c2ccccc12)Nc1ccccc1
AC50 [5]: > 30 µM (inactive)

Cc1cccc2sc(NC(=O)C3CC3)nc12
AC50 [5]: > 30 µM (inactive)

Clc1cccc(N2Cc3cc(-c4ccccc4)ccc3-n3nncc3C2)c1
AC50 [11]: 29.4 µM (active)
AC50 [12]: 20.7 µM (active)
AC50 [13]: 34.1 µM (active)

COc1cccc(S(=O)(=O)N2CCCCN3[C@@H](CO)[C@@H](c4ccc(C5=CCCCC5)cc4)[C@@H]3C2)c1
AC50 [14]: 1.62 µM (active)
AC50 [15]: 10.8 µM (active)
